Measured values: patent US20050019931A1, “Nucleic acids encoding antifungal drug targets and methods of use” (Elitra Pharmaceuticals, Inc., priority 2002, published 2005)

Tests used:
[1] = tested on: CaHIS3 (imidazoleglycerol phosphate dehydratase) wild type, heterozygote and GRACE strains; experiment: Target level variation whole cell assay: sensitivity of CaHIS3 strains towards 3-aminotriazole; assay type: cell-based, Candida albicans; details: for sensitivity of CaHIS3 GRACE strain minimally expressing CaHIS3 (partial repression, threshold tetracycline): FIG. 6C/6D
Text: The data derived from these experiments clearly indicate that distinct levels of target gene products synthesized within the pathogen could be directly applied in whole cell assay based drug screens to identify novel antifungal compounds active against novel drug targets validated using the GRACE method.
3-AT is a competitive inhibitor of the enzyme encoded by CaHIS3, imidazoleglycerol phosphate dehydratase, and together serve as a model for a drug and drug target respectively. […] The phenotype observed is consistent with that expected in light of the predicted 7.5 fold overexpression of CaHIS3 determined by Northern bolt analysis (see FIG. 5). […] A third CaHIS3 expression level evaluated for differential sensitivity to 3-AT was produced by partial repression of the GRACE CaHIS3 strain using a threshold concentration of tetracycline 0.1% […].
(§1) Moreover, these experiments clearly indicate how distinct levels of target gene products synthesized within the pathogen could be directly applied in whole cell assay based drug screens to identify novel antifungal compounds against those novel drug targets validated using the GRACE method.

[2] = tested on: bar-coded strains bearing heterozygous mutations in HIS3, TUB 1, ALG7, and ERG 11; details: mixed population; HIS3, TUB 1, ALG7, ERG 11 respectively; cited from earlier work
C. albicans = experiment: Sensitivity of C. albicans to selection antibiotics (dominant selectable markers); assay type: cell-based, Candida albicans
Text: Several art-known methods are available to create a heterozygote mutant. In less preferred embodiments, auxotrophic markers, such as but not limited to CaURA3, CaHIS3, CaLEU2, or CaTRP1, could be used for gene disruption if desired. However, the preferred method of heterozygote construction in diploid fungi employs a genetically modified dominant selectable marker. C. albicans is sensitive to the nucleoside-like antibiotic streptothricin at a concentration of 200 micrograms per milliliter. The presence of the Escherichia coli SAT1 gene within C. albicans allows acetylation of the drug rendering it nontoxic and permitting the strain to grow in the presence of streptothricin at a concentration of 200 micrograms per milliliter. Expression of the SAT1 gene in C. albicans is made possible by engineering the gene so that its DNA sequence is altered to conform to the genetic code of this organism and by providing a CaACT1 promoter (Morschhauser et al. (1998) Mol. Gen. Genet. 257:412-420) and a CaPCK1 terminator sequence (Leuker et al. (1997) Gene 192: 235-40). This genetically modified marker is referred to as CaSAT1 which is the subject of a copending United States nonprovisional application, published under the publication no. US20010031724, which is incorporated herein by reference in its entirety. […]

CaERG11 GRACE strain = experiment: GRACE strain drug resistance/sensitivity by increasing and decreasing target expression; assay type: cell-based, Candida albicans
Text: as §1

CaALG7 GRACE strain = experiment: as above; assay type: cell-based, Candida albicans
Text: as §1

[3] = inhibitory 3-AT concentration, FIG. 6A
[4] = intermediate 3-AT concentration, FIG. 6B

## Nc1nc[nH]n1 [3-AT, 3-aminotriazole]
[1]; [3]
  growth of CaHIS3 heterozygote strain: completely inhibit growth
  growth of wild type CaHIS3 strain: completely inhibit growth
  phenotype of CaHIS3 GRACE strain overexpressing CaHIS3 (constitutive tetracycline promoter expression): resistance
[1]; [4]
  effect on tetracycline promoter-based overproducing CaHIS3 strain: unable to effect
  effect on wild type CaHIS3 strain: unable to effect
  sensitivity of heterozygous CaHIS3 strain (haploinsufficient phenotype): enhanced sensitivity
[1]; intermediate 3-AT concentration
  sensitivity of CaHIS3 GRACE strain minimally expressing CaHIS3 (partial repression, threshold tetracycline): enhanced drug sensitivity relative the heterozygous CaHIS3 strain
[1]; intermediate 3-AT concentration, listed as 3-aminotriazole
  sensitivity of CaHIS3 GRACE strain minimally expressing CaHIS3 (partial repression, threshold tetracycline): hypersensitivity
[2]
  sensitivity of the bar-coded strain heterozygous for the respective drug target versus other heterozygote bar-coded strains: significantly greater sensitivity

## CCCCNC(=O)n1c(NC(=O)OC)nc2ccccc21 [benomyl]
[2]
  sensitivity of the bar-coded strain heterozygous for the respective drug target versus other heterozygote bar-coded strains: significantly greater sensitivity

## CN(CC[C@H](N)CC(=O)N[C@H]1C=C[C@H](n2ccc(N)nc2=O)O[C@@H]1C(=O)O)C(=N)N [blasticidin]
C. albicans; concentration not given
  sensitivity of C. albicans: sensitive

## OC(Cn1cncn1)(Cn1cncn1)c1ccc(F)cc1F [fluconazole]
CaERG11 GRACE strain
  GRACE strain-specific phenotypes on increasing and decreasing expression of the known drug target: drug resistance and sensitivity phenotypes
[2]
  sensitivity of the bar-coded strain heterozygous for the respective drug target versus other heterozygote bar-coded strains: significantly greater sensitivity

## streptothricin
C. albicans; concentration of 200 micrograms per milliliter
  sensitivity of C. albicans: sensitive

## tunicamycin
CaALG7 GRACE strain
  GRACE strain-specific phenotypes on increasing and decreasing expression of the known drug target: drug resistance and sensitivity phenotypes
[2]
  sensitivity of the bar-coded strain heterozygous for the respective drug target versus other heterozygote bar-coded strains: significantly greater sensitivity
